Test results published in patent publication US9409880B2, “Modulators of TLR3/dsRNA complex and uses thereof” (The Regents of the University of Colorado, a body corporate, priority 2011, dated 2016).

biological target: T1, TLR3 (Mus musculus, UniProt Q99MB1); assay: In vitro TLR3 inhibition assay: Poly IC-induced NO production in RAW 264.7 cells; format: cell-based; settings: 6a vs 4a
T1 construct: endogenous in cells; host or cells: RAW 264.7
T1 sequence (Q99MB1 26-905): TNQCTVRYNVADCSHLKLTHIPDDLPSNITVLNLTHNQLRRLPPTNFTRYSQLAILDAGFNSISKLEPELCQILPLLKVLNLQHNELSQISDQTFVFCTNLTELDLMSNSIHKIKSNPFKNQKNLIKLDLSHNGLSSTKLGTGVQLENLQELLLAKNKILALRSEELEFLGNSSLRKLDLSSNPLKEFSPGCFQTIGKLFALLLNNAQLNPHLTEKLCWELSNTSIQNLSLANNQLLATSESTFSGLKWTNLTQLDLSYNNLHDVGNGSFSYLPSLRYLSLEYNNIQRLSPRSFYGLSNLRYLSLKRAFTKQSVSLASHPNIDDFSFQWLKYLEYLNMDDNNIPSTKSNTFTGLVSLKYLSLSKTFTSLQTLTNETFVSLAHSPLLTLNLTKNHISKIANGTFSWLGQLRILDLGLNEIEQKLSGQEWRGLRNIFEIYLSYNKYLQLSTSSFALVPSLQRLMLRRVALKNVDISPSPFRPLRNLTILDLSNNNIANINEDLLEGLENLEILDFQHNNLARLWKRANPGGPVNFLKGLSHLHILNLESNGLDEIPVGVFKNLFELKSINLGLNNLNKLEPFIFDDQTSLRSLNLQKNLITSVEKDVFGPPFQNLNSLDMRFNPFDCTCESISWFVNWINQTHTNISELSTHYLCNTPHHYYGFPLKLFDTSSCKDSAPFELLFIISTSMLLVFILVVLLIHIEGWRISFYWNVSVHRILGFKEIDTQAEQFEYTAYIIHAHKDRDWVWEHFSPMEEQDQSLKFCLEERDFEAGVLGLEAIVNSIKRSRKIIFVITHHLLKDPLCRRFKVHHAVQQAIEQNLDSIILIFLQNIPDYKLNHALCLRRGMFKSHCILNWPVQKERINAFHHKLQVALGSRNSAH
From the text: The initial hits (Figure A) were first evaluated using the present inventors' previously established high-throughput cell assay of TLR3 activation. See, for example, ACS Med. Chem. Lett. 2010, 1, 194 and Bioorg. Med. Chem. Lett., 2010, 20, 5411. Poly IC (Polyriboinosinic:polyribocytidylic acid) has been reported to selectively activate TLR3 signaling, resulting in the activation of nitric oxide synthase and the production nitric oxide (NO) in RAW 264.7 macrophage cells. The NO level was monitored as an indicator of Poly IC-induced TLR3 activation to evaluate the drug's inhibitory activity.
RAW 264.7 (Mouse leukaemic monocyte macrophage cell line) cells were grown in RPMI 1640 medium, supplemented with 10% FBS, penicillin (100 U/mL) and streptomycin ([…]). RAW cells were then planted in 96-well plates at 100,000 cells per well and grown for 24 h in the media descried previously at 37° C. in a 5% CO2 humidified incubator. After 24 h, non-adherent cells and media were removed and replaced with fresh RPMI 1640 medium (only RPMI). The adherent macrophages were treated with high molecular weight polyinosine-polycytidylic acid (Poly IC) (10 μg/mL) (Invivogen), an agonist of TLR3, and then added different concentrates of potential inhibitor. Two rows were only treated with Poly IC as an control. Plates were then incubated for an additional 24 h. Following incubation 100 μL of media was removed and added to flat black 96-well microfluor plates (Thermo Scientific, MA, USA). To each well, 10 μL of 2,3-diaminonaphthalene (0.05 mg/mL in 0.62 M aqueous HCl solution) was added and incubated for 15 min in the dark. The reaction was quenched by addition of 5 μL of a 3 M aqueous NaOH solution and the plate was read on Beckman Coulter DTX880 reader (Beckman Coulter, Calif., USA) with excitation at 365 nm and emission at 450 nm. The nitrite (a stable metabolite of nitric oxide) concentration was determined from a nitrite standard curve. The inhibition rate (%) of NO release was determined using the following formula: Inhibition (%)=[Poly IC(OD450)−Compounds (OD450)]/[Poly IC(OD450)−Control (OD450)]×100. The IC50 values for both inhibition and cytotoxicity were determined graphically using software Origin v7.5.

decrease in potency [fold]	SMILES
10	COc1ccc2c(Cl)c(C(=O)N[C@H](Cc3ccccc3)C(=O)O)sc2c1 [Compound 6a, (R)-2-(3-chloro-6-methoxybenzo[b]thiophene-2-carboxamido)-3-phenylpropanoic acid]

same assay, conditions: Poly IC-induced TLR3 activation, cell assay

IC50 [µM]	SMILES
145 ± 3.7	O=C(O)[C@@H](Cc1ccccc1)NS(=O)(=O)c1ccccc1F [Compound T5260630, reference compound]
154 ± 5.9	O=C(N[C@H](Cc1ccccc1)C(=O)O)c1cc2c(s1)CCCCC2 [Compound T5626448, reference compound]

same assay, conditions: whole cell inhibitory activity; Poly IC-induced NO, RAW 264.7; average ± SD, at least three independent tests

SMILES	IC50 [µM]
O=C(N[C@H](Cc1ccc(O)cc1)C(=O)O)c1sc2cc(F)ccc2c1Cl [Compound 7a, (R)-2-(3-chloro-6-fluorobenzo[b]thiophene-2-carboxamido)-3-(4-hydroxyphenyl)propanoic acid]	56.4 ± 5.2
O=C(N[C@H](Cc1ccc(O)cc1)C(=O)O)c1cc2ccccc2s1 [Compound 9a, (R)-2-(benzo[b]thiophene-2-carboxamido)-3-(4-hydroxyphenyl)propanoic acid]	> 100
COc1ccc2c(Cl)c(C(=O)N[C@H](Cc3ccccc3)C(=O)O)sc2c1 [Compound 6a, (R)-2-(3-chloro-6-methoxybenzo[b]thiophene-2-carboxamido)-3-phenylpropanoic acid]	36.7 ± 3.9
O=C(N[C@H](Cc1ccccc1)C(=O)O)c1sc2cc(F)c(F)cc2c1Cl [Compound 8a, (R)-2-(3-chloro-5,6-difluorobenzo[b]thiophene-2-carboxamido)-3-phenylpropanoic acid]	70.7 ± 2.1
Cc1ccc2c(Cl)c(C(=O)N[C@@H](Cc3ccccc3)C(=O)O)sc2c1 [Compound 2b, (S)-2-(3-chloro-6-methylbenzo[b]thiophene-2-carboxamido)-3-phenylpropanoic acid]	31.7 ± 0.7
O=C(N[C@@H](Cc1ccc(O)cc1)C(=O)O)c1sc2cc(F)ccc2c1Cl [Compound 7b, (S)-2-(3-chloro-6-fluorobenzo[b]thiophene-2-carboxamido)-3-(4-hydroxyphenyl)propanoic acid]	84.7 ± 2.4
O=C(N[C@@H](Cc1ccccc1)C(=O)O)c1cc2cc(F)ccc2s1 [Compound 10b, (S)-2-(5-fluorobenzo[b]thiophene-2-carboxamido)-3-phenylpropanoic acid]	> 100
COc1ccc2c(Cl)c(C(=O)N[C@@H](Cc3ccccc3)C(=O)O)sc2c1 [Compound 6b, (S)-2-(3-chloro-6-methoxybenzo[b]thiophene-2-carboxamido)-3-phenylpropanoic acid]	> 100
O=C(N[C@@H](Cc1ccccc1)C(=O)O)c1sc2ccc(F)cc2c1Cl [Compound 12b, (S)-2-(3-chloro-5-fluorobenzo[b]thiophene-2-carboxamido)-3-phenylpropanoic acid]	54.1 ± 5.7
O=C(N[C@H](Cc1ccccc1)C(=O)O)c1sc2ccccc2c1Cl [Compound 11a, (R)-2-(3-chlorobenzo[b]thiophene-2-carboxamido)-3-phenylpropanoic acid]	> 100
O=C(N[C@@H](Cc1ccccc1)C(=O)O)c1cc2ccc(F)cc2s1 [Compound 13b, (S)-2-(6-fluorobenzo[b]thiophene-2-carboxamido)-3-phenylpropanoic acid]	> 100
O=C(N[C@H](Cc1ccccc1)C(=O)O)c1cc2cc(F)ccc2s1 [Compound 10a, (R)-2-(5-fluorobenzo[b]thiophene-2-carboxamido)-3-phenylpropanoic acid]	> 100
O=C(N[C@@H](Cc1ccccc1)C(=O)O)c1cc2ccccc2s1 [Compound 1b, (S)-2-(benzo[b]thiophene-2-carboxamido)-3-phenylpropanoic acid]	> 155
O=C(N[C@@H](Cc1ccccc1)C(=O)O)c1sc2cc(C(F)(F)F)ccc2c1Cl [Compound 5b, (S)-2-(3-chloro-6-(trifluoromethyl)benzo[b]thiophene-2-carboxamido)-3-phenylpropanoic acid]	19.8 ± 3.6
O=C(N[C@@H](Cc1ccccc1)C(=O)O)c1sc2cc(F)ccc2c1Cl [Compound 4b, (S)-2-(3-chloro-6-fluorobenzo[b]thiophene-2-carboxamido)-3-phenylpropanoic acid]	21.9 ± 0.7
O=C(N[C@H](Cc1ccccc1)C(=O)O)c1cc2ccc(F)cc2s1 [Compound 13a, (R)-2-(6-fluorobenzo[b]thiophene-2-carboxamido)-3-phenylpropanoic acid]	> 100
O=C(N[C@H](Cc1ccccc1)C(=O)O)c1sc2cc(Cl)ccc2c1Cl [Compound 3a, (R)-2-(3,6-dichlorobenzo[b]thiophene-2-carboxamido)-3-phenylpropanoic acid]	5.6 ± 0.32
O=C(N[C@@H](Cc1ccccc1)C(=O)O)c1sc2cc(F)c(F)cc2c1Cl [Compound 8b, (S)-2-(3-chloro-5,6-difluorobenzo[b]thiophene-2-carboxamido)-3-phenylpropanoic acid]	79.5 ± 3.4
O=C(N[C@@H](Cc1ccccc1)C(=O)O)c1sc2ccccc2c1Cl [Compound 11b, (S)-2-(3-chlorobenzo[b]thiophene-2-carboxamido)-3-phenylpropanoic acid]	> 100

More lines, now with the values ahead:

IC50 [µM]	SMILES
145 ± 4	O=C(O)[C@@H](Cc1ccccc1)NS(=O)(=O)c1ccccc1F [Compound T5260630, reference compound]
154 ± 6	O=C(N[C@H](Cc1ccccc1)C(=O)O)c1cc2c(s1)CCCCC2 [Compound T5626448, reference compound]

same assay, conditions: whole cell inhibitory activity; second part of Table 1 (R5/R6 series)

IC50 [µM]	SMILES
> 100	O=C(O)[C@H](Cc1ccc(O)cc1)NS(=O)(=O)c1ccc(F)cc1 [Compound 19b, (S)-2-(4-fluorophenylsulfonamido)-3-(4-hydroxyphenyl)propanoic acid]
> 100	O=C(O)[C@@H](Cc1ccccc1)NS(=O)(=O)c1ccccc1F [Compound 14a, (R)-2-(2-fluorophenylsulfonamido)-3-phenylpropanoic acid]
> 100	O=C(O)[C@H](Cc1ccc(O)cc1)NS(=O)(=O)c1cccc(F)c1 [Compound 18b, (S)-2-(3-fluorophenylsulfonamido)-3-(4-hydroxyphenyl)propanoic acid]
> 100	O=C(O)[C@@H](Cc1ccc(O)cc1)NS(=O)(=O)c1cccc(F)c1 [Compound 18a, (R)-2-(3-fluorophenylsulfonamido)-3-(4-hydroxyphenyl)propanoic acid]
> 100	O=C(O)[C@@H](Cc1ccc(O)cc1)NS(=O)(=O)c1ccccc1F [Compound 17a, (R)-2-(2-fluorophenylsulfonamido)-3-(4-hydroxyphenyl)propanoic acid]
> 100	O=C(O)[C@H](Cc1ccccc1)NS(=O)(=O)c1cccc(F)c1 [Compound 15b, (S)-2-(3-fluorophenylsulfonamido)-3-phenylpropanoic acid]
> 100	O=C(O)[C@H](Cc1ccccc1)NS(=O)(=O)c1ccc(F)cc1 [Compound 16b, (S)-2-(4-fluorophenylsulfonamido)-3-phenylpropanoic acid]
> 100	O=C(O)[C@@H](Cc1ccccc1)NS(=O)(=O)c1ccc(F)cc1 [Compound 16a, (R)-2-(4-fluorophenylsulfonamido)-3-phenylpropanoic acid]
> 100	O=C(O)[C@H](Cc1ccccc1)NS(=O)(=O)c1ccccc1F [Compound 14b, (S)-2-(2-fluorophenylsulfonamido)-3-phenylpropanoic acid]
> 100	O=C(O)[C@H](Cc1ccc(O)cc1)NS(=O)(=O)c1ccccc1F [Compound 17b, (S)-2-(2-fluorophenylsulfonamido)-3-(4-hyroxyphenyl)propanoic acid]
> 100	O=C(O)[C@@H](Cc1ccccc1)NS(=O)(=O)c1cccc(F)c1 [Compound 15a, (R)-2-(3-fluorophenylsulfonamido)-3-phenylpropanoic acid]
